Assays:
[1] = High humidity test (room temperature, 75 ± 5% relative humidity); format: physicochemical; settings: for Hydroscopic property: high humidity test; for Appearance / Content / Weight gain of moisture absorption: room temperature, 75 ± 5% relative humidity; for Change of appearance in high humidity test (in words) / Change of content in high humidity test (in words): summary of 10-day test
Procedure: The raw material of Polymorph I of Dasatinib monohydrate was distributed homogeneously in open petri dish with thickness of the raw material not more than 5 mm and put into thermostatic and humidostatic incubator at room temperature (about 25° C.) and 75±5% relative humidity. Sample was tested at the 5th and 10th day respectively and the results were contrasted with that of the Day 0. Results were listed in Tab. 4.
The raw material of Polymorph II of Dasatinib was distributed homogeneously in open petri dish with thickness of the raw material not more than 5 mm and put into thermostatic and humidostatic incubator at room temperature (about 25° C.) and 75±5% relative humidity. Sample was tested at the 5th and 10th day respectively and the results were contrasted with that of the Day 0. Results were listed in Tab. 9.

[2] = Comparative test on stability: destruction experiment, related substances by HPLC; format: physicochemical
Procedure: The methods of destruction experiment of the Polymorph I and II of this invention (hereinafter referred to as ‘Polymorph I’ and ‘Polymorph II’) contrasting with the Polymorph A of Dasatinib prepared by the method in CN200580011916.6 (hereinafter referred to as ‘916.6 Polymorph A’) and results of stability are followed:
Oxidation destruction: 50 mg of sample weighted accurately was added into measuring flask of 100 mL, and 10 mL 30% H2O2 was added. After standing at room temperature for 2 hour, the mixture was diluted with mobile phase to scale and shook to be homogeneous, and determined by HPLC.
Acid destruction: 50 mg of sample weighted accurately was added into measuring flask of 100 mL, and 10 mL 1 mol/L HCl solution was added. After standing at 40° C. for 1 hour, an equal amount of 1 mol/L NaOH solution was added for neutralization. Then the mixture was diluted with mobile phase to scale and shook to be homogeneous, and determined by HPLC.
Alkali destruction: 50 mg of sample weighted accurately was added into measuring flask of 100 mL, and 10 mL 1 mol/L NaOH solution was added. After standing at 40° C. for 1 hour, an equal amount of 1 mol/L HCl solution was added for neutralization. Then the mixture was diluted with mobile phase to scale and shook to be homogeneous, and determined by HPLC.
Illumination destruction: 50 mg of sample weighted accurately was added into measuring flask of 100 mL, dissolved and diluted with mobile phase to be the solution containing 0.5 mg Dasatinib per milliliter. After standing under illumination of 4000 lx for 6 hour, the mixture was determined by HPLC.
High temperature destruction: 50 mg of sample weighted accurately was added into measuring flask of 100 mL, dissolved and diluted with mobile phase to be the solution containing 0.5 mg Dasatinib per milliliter. After standing in homothermal water bath of 60° C. for 4 hour, the mixture was cooled and then determined by HPLC.
Related Substances Determination
HPLC conditions and system applicability: octadecylsilane bonded silica as the filler; 0.05 mol/L of potassium dihydrogen phosphate (adjusted to pH 2.5 by phosphoric acid, 0.2% triethylamine)-methanol (45:55) as the mobile phase; detection wavelength was 230 nm; the number of theoretical plates should be not less than 2000, calculated according to the peak of Dasatinib. The resolution of the peak of Dasatinib from the peaks of adjacent impurities should meet requirements.
Determination method: sample was dissolved in mobile phase to be the solution containing 0.5 mg per milliliter. 20 μL of such solution was injected into liquid chromatograph, and chromatogram was recorded until the sixfold retention time of major component peak. If there were impurities peaks in the chromatogram of sample solution, total impurities and any single impurity were calculated by normalization method on the basis of peak area.

[3] = High temperature test (60° C.); format: physicochemical; settings: for Change of appearance in high temperature test (in words) / Change of content in high temperature test (in words): summary of 10-day test
Source text: The conditions and methods of related substance test involved in this invention was in accordance with HPLC (Appendix VD of Chinese Pharmacopoeia, Vol. II, (2005)).
Chromatographic conditions and system applicability:
octadecylsilane bonded silica as the filler; 0.05 mol/L of potassium dihydrogen phosphate (adjusted to pH 2.5 by phosphoric acid)-methanol (45:55) as the mobile phase; detection wavelength was 230 nm; the number of theoretical plates should be not less than 2000, calculated according to the peak area of Dasatinib. The resolution of the peak of Dasatinib from the peaks of adjacent impurities should meet requirements.
Test Method: the sample was weight and dissolved into mobile phase to be the solution containing 0.5 mg per mL, and 20 μL of this solution was taken and injected into liquid chromatography. Chromatogram was recorded until it is 6 times as the retention time of the main peak.
2.2 High Temperature Test
The raw material of Polymorph I of Dasatinib monohydrate was put into a clean sealed glass bottle and then put in thermostatic drying chamber at 60° C. Sample was tested at the 5th and 10th day respectively and the results were contrasted with that of the Day 0. Results were listed in Tab. 3.
The raw material of Polymorph II of Dasatinib was put into a clean sealed glass bottle and then put in thermostatic drying chamber at 60° C. Sample was tested at the 5th and 10th day respectively and the results were contrasted with that of the Day 0. Results were listed in Tab. 8.

[4] = Stability in water compared with polymorph A of CN200580011916.6
[5] = 1 mol/L acid destruction (HCl, 40° C., 1 hour)
[6] = 1 mol/L alkali destruction (NaOH, 40° C., 1 hour)
[7] = high temperature destruction (60° C. water bath, 4 hour, in solution)
[8] = illumination destruction (4000 lx, 6 hour, in solution)
[9] = oxidation destruction (30% H2O2, room temperature, 2 hour)

In the case of `Cc1nc(Nc2ncc(C(=O)Nc3c(C)cccc3Cl)s2)cc(N2CCN(CCO)CC2)n1` [Polymorph II, N-(2-chloro-6-methylphenyl)-2-[[6-[4-(2-hydroxyethyl)-1-piperazinyl]-2-methyl-4-pyrimidyl]amino]-5-thiazolformamide], the Hydroscopic property [1] is reported as “lower”, the Appearance ([1]; day 0) is reported as “white powder” and the Content ([1]; day 0) is reported as 99.8%. The “Weight gain of moisture absorption” value ([1]; day 0) was 0.57%, the Appearance ([1]; day 5) was “white powder” and the Content ([1]; day 5) was 99.7%. For the same compound, the “Weight gain of moisture absorption” value ([1]; day 5) was 3.63%, the Appearance ([1]; day 10) was “white powder” and the Content ([1]; day 10) was 99.8%. For the same compound, the “Weight gain of moisture absorption” value ([1]; day 10) was 3.72%, the “Change of appearance in high humidity test (in words)” value [1] was “no obvious change” and the “Change of content in high humidity test (in words)” value [1] was “no obvious change”. For the same compound, the “Impurity tR4.101” value ([2]; 1 mol/L acid destruction) was 0.01%, the “Impurity tR4.993” value ([2]; 1 mol/L acid destruction) was 0.01% and the “Impurity tR5.604” value ([2]; 1 mol/L acid destruction) was 0.02%. For the same compound, the Total impurities [2, 5] was 0.06%, the “Impurity tR3.580” value ([2]; 1 mol/L alkali destruction) was 0.01% and the “Impurity tR4.131” value ([2]; 1 mol/L alkali destruction) was 0.02%. For the same compound, the “Impurity tR5.092” value ([2]; 1 mol/L alkali destruction) was 0.01%, the “Impurity tR5.512” value ([2]; 1 mol/L alkali destruction) was 0.02% and the “Impurity tR9.424” value ([2]; 1 mol/L alkali destruction) was 0.01%. For the same compound, the Total impurities [2, 6] was 0.08%, the “Impurity tR4.114” value ([2]; before destruction) was 0.02% and the “Impurity tR5.049” value ([2]; before destruction) was 0.01%. For the same compound, the “Impurity tR5.473” value ([2]; before destruction) was 0.02%, the Total impurities ([2]; before destruction) was 0.06% and the “Impurity tR3.567” value ([2]; high temperature destruction) was 0.01%. The “Impurity tR4.117” value ([2]; high temperature destruction) was 0.01%, the “Impurity tR5.085” value ([2]; high temperature destruction) was 0.01% and the “Impurity tR5.507” value ([2]; high temperature destruction) was 0.02%. The Total impurities [2, 7] was 0.06%, the “Impurity tR2.197” value ([2]; illumination destruction) was 0.05% and the “Impurity tR2.526” value ([2]; illumination destruction) was 0.05%. For the same compound, the “Impurity tR2.910” value ([2]; illumination destruction) was 0.02%, the “Impurity tR3.733” value ([2]; illumination destruction) was 0.11% and the “Impurity tR4.116” value ([2]; illumination destruction) was 0.04%. For the same compound, the “Impurity tR4.582” value ([2]; illumination destruction) was 0.07%, the “Impurity tR5.084” value ([2]; illumination destruction) was 0.02% and the “Impurity tR5.496” value ([2]; illumination destruction) was 0.15%. The “Impurity tR5.990” value ([2]; illumination destruction) was 0.06%, the “Impurity tR10.084” value ([2]; illumination destruction) was 0.78% and the Total impurities [2, 8] was 1.36%. The “Impurity tR4.393” value ([2]; oxidation destruction) was 0.02%, the “Impurity tR4.567” value ([2]; oxidation destruction) was 0.03% and the “Impurity tR5.090” value ([2]; oxidation destruction) was 0.01%. For the same compound, the “Impurity tR5.510” value ([2]; oxidation destruction) was 0.07%, the “Impurity tR6.468” value ([2]; oxidation destruction) was 0.04% and the “Impurity tR9.486” value ([2]; oxidation destruction) was 1.00%. The Total impurities [2, 9] was 1.19%, the Content ([3]; day 0) was 99.8% and the Related substance ([3]; day 0) was 0.06%. The Content ([3]; day 5) was 99.7%, the Related substance ([3]; day 5) was 0.11% and the Content ([3]; day 10) was 99.4%. The Related substance ([3]; day 10) was 0.16%, the “Change of appearance in high temperature test (in words)” value [3] was “few obvious change” and the “Change of content in high temperature test (in words)” value [3] was “few obvious change”. For the same compound, the “Stability in water by comparison to polymorph A of CN200580011916.6” value [4] was “better stability in water”.
For `Cc1nc(Nc2ncc(C(=O)Nc3c(C)cccc3Cl)s2)cc(N2CCN(CCO)CC2)n1` [Polymorph I, N-(2-chloro-6-methylphenyl)-2-[[6-[4-(2-hydroxyethyl)-1-piperazinyl]-2-methyl-4-pyrimidyl]amino]-5-thiazolformamide], the Hydroscopic property [1] was “lower”, the Appearance ([1]; day 0) was “white powder” and the Content ([1]; day 0) was 99.7%. The “Weight gain of moisture absorption” value ([1]; day 0) was 3.57%, the Appearance ([1]; day 5) was “white powder” and the Content ([1]; day 5) was 99.6%. The “Weight gain of moisture absorption” value ([1]; day 5) was 3.73%, the Appearance ([1]; day 10) was “white powder” and the Content ([1]; day 10) was 99.7%. The “Weight gain of moisture absorption” value ([1]; day 10) was 3.76%, the “Change of appearance in high humidity test (in words)” value [1] was “no obvious change” and the “Change of content in high humidity test (in words)” value [1] was “no obvious change”. For the same compound, the “Impurity tR4.102” value ([2]; 1 mol/L acid destruction) was 0.02%, the “Impurity tR4.987” value ([2]; 1 mol/L acid destruction) was 0.01% and the “Impurity tR5.603” value ([2]; 1 mol/L acid destruction) was 0.02%. The Total impurities [2, 5] was 0.06%, the “Impurity tR4.130” value ([2]; 1 mol/L alkali destruction) was 0.02% and the “Impurity tR5.089” value ([2]; 1 mol/L alkali destruction) was 0.01%. The “Impurity tR5.501” value ([2]; 1 mol/L alkali destruction) was 0.02%, the Total impurities [2, 6] was 0.08% and the “Impurity tR4.113” value ([2]; before destruction) was 0.02%. For the same compound, the “Impurity tR5.037” value ([2]; before destruction) was 0.01%, the “Impurity tR5.535” value ([2]; before destruction) was 0.03% and the Total impurities ([2]; before destruction) was 0.07%. The “Impurity tR3.569” value ([2]; high temperature destruction) was 0.01%, the “Impurity tR4.120” value ([2]; high temperature destruction) was 0.02% and the “Impurity tR5.088” value ([2]; high temperature destruction) was 0.01%. The “Impurity tR5.520” value ([2]; high temperature destruction) was 0.02%, the Total impurities [2, 7] was 0.05% and the “Impurity tR2.199” value ([2]; illumination destruction) was 0.04%. For the same compound, the “Impurity tR2.527” value ([2]; illumination destruction) was 0.06%, the “Impurity tR2.911” value ([2]; illumination destruction) was 0.33% and the “Impurity tR3.734” value ([2]; illumination destruction) was 0.11%. For the same compound, the “Impurity tR4.119” value ([2]; illumination destruction) was 0.04%, the “Impurity tR4.585” value ([2]; illumination destruction) was 0.08% and the “Impurity tR5.089” value ([2]; illumination destruction) was 0.03%. For the same compound, the “Impurity tR5.502” value ([2]; illumination destruction) was 0.14%, the “Impurity tR5.996” value ([2]; illumination destruction) was 0.08% and the “Impurity tR10.096” value ([2]; illumination destruction) was 0.66%. The Total impurities [2, 8] was 1.28%, the “Impurity tR3.719” value ([2]; oxidation destruction) was 0.06% and the “Impurity tR4.108” value ([2]; oxidation destruction) was 0.02%. The “Impurity tR4.568” value ([2]; oxidation destruction) was 0.04%, the “Impurity tR5.090” value ([2]; oxidation destruction) was 0.01% and the “Impurity tR5.508” value ([2]; oxidation destruction) was 0.06%. For the same compound, the “Impurity tR6.467” value ([2]; oxidation destruction) was 0.05%, the “Impurity tR9.476” value ([2]; oxidation destruction) was 1.058% and the Total impurities [2, 9] was 1.32%. For the same compound, the Appearance ([3]; day 0) was “white powder”, the Content ([3]; day 0) was 99.8% and the Related substance ([3]; day 0) was 0.06%. The Appearance ([3]; day 5) was “white powder”, the Content ([3]; day 5) was 99.7% and the Related substance ([3]; day 5) was 0.09%. The Appearance ([3]; day 10) was “white powder”, the Content ([3]; day 10) was 99.5% and the Related substance ([3]; day 10) was 0.12%. For the same compound, the “Change of appearance in high temperature test (in words)” value [3] was “few obvious change”, the “Change of content in high temperature test (in words)” value [3] was “went down marginally” and the “Stability in water by comparison to polymorph A of CN200580011916.6” value [4] was “better stability in water”.
